Values after ≈ are worked out from the molar mass of the structure shown.
Experiments:
Assay in all cases: ≥ marks a high value that may be exact or a test limit, other limits are often not marked, values filed in µg/mL are converted to µM
Bacillus cereus = system: Bacillus cereus
Enterococcus faecalis = system: Enterococcus faecalis
Escherichia coli = system: Escherichia coli
Leuconostoc lactis = system: Leuconostoc lactis
Listeria innocua = system: Listeria innocua
Micrococcus luteus = system: Micrococcus luteus
Pasteurella multocida = system: Pasteurella multocida
Staphylococcus aureus = system: Staphylococcus aureus
[1] = system: Staphylococcus epidermidis
Streptococcus uberis = system: Streptococcus uberis
[2] = system: Enterococcus faecalis ATCC 29212
[3] = system: Pseudomonas aeruginosa Ps4
[4] = system: Candida albicans ATCC 2002
[5] = system: Escherichia coli ATCC 25922
[6] = system: Staphylococcus aureus ATCC 2592
Candida albicans = system: Candida albicans
Escherichia coli MG1655 = system: Escherichia coli MG1655
[7] = system: Pseudomonas aeruginosa PAO1
[8] = system: Staphylococcus aureus ATCC 25923

SMILES | MIC (Bacillus cereus) [µM] | MIC (Escherichia coli) [µM] | MIC (Leuconostoc lactis) [µM] | MIC (Listeria innocua) [µM] | MIC (Micrococcus luteus) [µM] | MIC (Pasteurella multocida) [µM] | MIC (Staphylococcus aureus) [µM] | MIC [1] [µM] | MIC (Streptococcus uberis) [µM] | MIC [3] [µM] | also measured
CC[C@H](C)[C@H](NC(=O)CNC(=O)[C@H](CO)NC(=O)[C@@H](NC(=O)[C@@H](NC(=O)CNC(=O)[C@H](CCCCN)NC(=O)[C@H](C)NC(=O)[C@H](CC(C)C)NC(=O)[C@H](CO)NC(=O)[C@H](CCC(=O)O)NC(=O)[C@H](CC(C)C)NC(=O)[C@H](CO)NC(=O)[C@H](CCC(=O)O)NC(=O)[C@H](CC(C)C)NC(=O)[C@H](CCCCN)NC(=O)[C@H](CCC(=O)O)NC(=O)[C@H](CCCCN)NC(=O)[C@@H](NC(=O)[C@@H](NC(=O)[C@H](CCC(N)=O)NC(=O)[C@H](CC(C)C)NC(=O)[C@H](CC(C)C)NC(=O)CN)[C@@H](C)O)[C@@H](C)CC)[C@@H](C)CC)C(C)C)C(=O)N[C@@H](CCC(N)=O)C(=O)N[C@@H](C)C(N)=O [GLLQTIKEKLESLESLAKGIVSGIQA] | ≥ 36.7 | > 36.7 | ≥ 36.7 | ≥ 36.7 | ≥ 36.7 | ≥ 36.7 | > 36.7 | ≥ 36.7 | 9.17 (≈ 25 µg/mL) | – | MIC (Enterococcus faecalis): ≥ 36.7 µM
CC[C@H](C)[C@H](NC(=O)[C@@H](NC(=O)[C@@H]1CCCN1C(=O)[C@@H](NC(=O)[C@@H](NC(=O)[C@H](Cc1cnc[nH]1)NC(=O)[C@@H]1CCCN1C(=O)[C@H](CC(C)C)NC(=O)[C@@H](NC(=O)[C@H](Cc1cnc[nH]1)NC(=O)[C@H](CCCCN)NC(=O)[C@H](C)NC(=O)[C@@H](NC(=O)[C@H](CO)NC(=O)[C@H](CO)NC(=O)[C@H](CC(C)C)NC(=O)[C@H](CO)NC(=O)[C@H](CO)NC(=O)[C@H](CC(C)C)NC(=O)[C@H](CC(C)C)NC(=O)CN)C(C)C)C(C)C)C(C)C)C(C)C)C(C)C)C(=O)N[C@@H](C)C(=O)N[C@@H](CCC(=O)O)C(=O)N[C@@H](Cc1cnc[nH]1)C(=O)N[C@@H](CC(C)C)C(N)=O [GLLSSLSSVAKHVLPHVVPVIAEHL] | 19.2 (≈ 50 µg/mL) | 19.2 (≈ 50 µg/mL) | 4.61 (≈ 12 µg/mL) | ≥ 38.4 | 0.154 (≈ 0.4 µg/mL) | 9.6 (≈ 25 µg/mL) | 38.4 (≈ 100 µg/mL) | 9.6 (≈ 25 µg/mL) | ≥ 38.4 | – | –
CC[C@H](C)[C@H](NC(=O)[C@H](CC(N)=O)NC(=O)[C@H](CCCN=C(N)N)NC(=O)[C@H](CCC(N)=O)NC(=O)[C@H](Cc1c[nH]c2ccccc12)NC(=O)[C@H](Cc1ccccc1)NC(=O)[C@@H](N)CCCN=C(N)N)C(=O)N[C@@H](CCCN=C(N)N)C(=O)N[C@@H](CCCCN)C(=O)N[C@H](C(=O)N[C@@H](CCCN=C(N)N)C(=O)N[C@@H](CCCN=C(N)N)C(N)=O)C(C)C [RFWQRNIRKVRR] | – | – | – | – | – | – | – | – | – | ≥ 146 | –
CC[C@H](C)[C@H](NC(=O)[C@H](CC(N)=O)NC(=O)[C@H](CCCN=C(N)N)NC(=O)[C@H](CCC(N)=O)NC(=O)[C@H](Cc1c[nH]c2ccccc12)NC(=O)[C@H](CCCN=C(N)N)NC(=O)[C@@H](N)CCCN=C(N)N)C(=O)N[C@@H](CCCN=C(N)N)C(=O)N[C@@H](CCCCN)C(=O)N[C@@H](Cc1ccc(O)cc1)C(=O)N[C@@H](CCCN=C(N)N)C(=O)N[C@@H](CCCN=C(N)N)C(N)=O [RRWQRNIRKYRR] | – | – | – | – | – | – | – | – | – | ≥ 140 | –
CC[C@H](C)[C@H](NC(=O)[C@@H](NC(=O)[C@@H]1CCCN1C(=O)[C@H](CC(C)C)NC(=O)[C@@H](N)Cc1ccccc1)[C@@H](C)CC)C(=O)N[C@@H](C)C(=O)N[C@@H](CCCCN)C(=O)N[C@@H](CC(C)C)C(=O)N[C@@H](CC(C)C)C(=O)NCC(=O)NCC(=O)N[C@@H](CC(C)C)C(=O)N[C@@H](CC(C)C)C(N)=O [FLPIIAKLLGGLL] | – | – | – | – | – | – | – | – | – | – | MIC [4]: 18.3 µM (≈ 25 µg/mL); MIC [5]: 21.9 µM (≈ 30 µg/mL); MIC [6]: 3.66 µM (≈ 5 µg/mL)
CC[C@H](C)[C@H](NC(=O)[C@H](CC(N)=O)NC(=O)[C@H](CCCN=C(N)N)NC(=O)[C@H](CCC(N)=O)NC(=O)[C@H](Cc1c[nH]c2ccccc12)NC(=O)[C@H](C)NC(=O)[C@@H](N)Cc1ccccc1)C(=O)N[C@@H](CCCN=C(N)N)C(=O)N[C@@H](CCCCN)C(=O)N[C@H](C(=O)N[C@@H](CCCN=C(N)N)C(N)=O)C(C)C [FAWQRNIRKVR] | – | – | – | – | – | – | – | – | – | ≥ 170 | –
CSCC[C@H](NC(=O)[C@@H](NC(=O)[C@@H](N)CCCCN)C(C)C)C(=O)N[C@@H](CCCN=C(N)N)C(=O)N[C@@H](CCCCN)C(=O)N[C@H](C(=O)N[C@@H](CC(C)C)C(=O)NCC(=O)N[C@@H](Cc1ccc(O)cc1)C(=O)N[C@@H](CC(C)C)C(=O)N[C@@H](CCCN=C(N)N)C(=O)N[C@@H](CC(N)=O)C(=O)N[C@H](C(=O)N[C@@H](Cc1ccc(O)cc1)C(=O)N[C@@H](CCCCN)C(N)=O)C(C)C)C(C)C [KVMRKVLGYLRNVYK] | – | – | – | – | – | – | – | – | – | – | MIC (Candida albicans): 32 µM (≈ 59.7 µg/mL); MIC (Escherichia coli MG1655): 2 µM (≈ 3.73 µg/mL); MIC [7]: 32 µM (≈ 59.7 µg/mL); MIC [8]: 128 µM (≈ 239 µg/mL)
NC(=O)[C@H](CCCN=C(N)N)NC(=O)[C@H](CCCN=C(N)N)NC(=O)[C@H](Cc1c[nH]c2ccccc12)NC(=O)[C@H](CCCN=C(N)N)NC(=O)[C@H](CCCN=C(N)N)NC(=O)[C@H](Cc1c[nH]c2ccccc12)NC(=O)[C@@H](N)Cc1ccccc1 [FWRRWRR] | – | – | – | – | – | – | – | – | – | ≥ 108 | –

Continued, in another order:

MIC (Bacillus cereus) [µM] | MIC (Escherichia coli) [µM] | MIC (Leuconostoc lactis) [µM] | MIC (Listeria innocua) [µM] | MIC (Micrococcus luteus) [µM] | MIC (Pasteurella multocida) [µM] | MIC (Staphylococcus aureus) [µM] | MIC [1] [µM] | MIC (Streptococcus uberis) [µM] | MIC [3] [µM] | SMILES | also measured
≥ 53.2 | > 53.2 | ≥ 53.2 | ≥ 53.2 | ≥ 53.2 | ≥ 53.2 | 53.2 (≈ 99.9 µg/mL) | 26.6 (≈ 50 µg/mL) | 13.3 (≈ 25 µg/mL) | – | CC[C@H](C)[C@H](NC(=O)[C@@H](NC(=O)CNC(=O)[C@H](C)NC(=O)[C@@H](NC(=O)[C@H](CCCCN)NC(=O)[C@H](CCCCN)NC(=O)[C@H](CC(C)C)NC(=O)[C@H](Cc1ccccc1)NC(=O)[C@H](CC(=O)O)NC(=O)[C@@H](NC(=O)[C@H](Cc1ccccc1)NC(=O)CN)C(C)C)C(C)C)[C@@H](C)O)C(=O)N[C@@H](C)C(=O)N[C@@H](CC(N)=O)C(=O)N[C@H](C(=O)N[C@H](C(=O)N[C@H](C(N)=O)[C@@H](C)O)C(C)C)C(C)C [GFVDFLKKVAGTIANVVT] | MIC (Enterococcus faecalis): ≥ 53.2 µM
– | – | ≥ 50 | – | – | – | – | – | – | – | CC[C@H](C)[C@H](NC(=O)CNC(=O)[C@@H](NC(=O)[C@@H](NC(=O)[C@H](Cc1cnc[nH]1)NC(=O)[C@H](CCCCN)NC(=O)[C@H](C)NC(=O)[C@H](Cc1ccccc1)NC(=O)[C@H](CC(=O)O)NC(=O)[C@H](CC(C)C)NC(=O)[C@H](CC(C)C)NC(=O)CN)C(C)C)[C@@H](C)CC)C(=O)N[C@@H](C)C(=O)N[C@@H](CO)C(=O)N[C@@H](CCCCN)C(=O)N[C@@H](CC(C)C)C(N)=O [GLLDFAKHVIGIASKL] | MIC [2]: 100 µM (≈ 168 µg/mL)
≥ 54.8 | > 54.8 | 6.57 (≈ 12 µg/mL) | 27.4 (≈ 50 µg/mL) | ≥ 54.8 | ≥ 54.8 | > 54.8 | ≥ 54.8 | ≥ 54.8 | – | CC[C@H](C)[C@H](NC(=O)[C@@H](NC(=O)[C@H](C)NC(=O)[C@H](C)NC(=O)[C@@H](NC(=O)[C@H](CCCCN)NC(=O)[C@H](CCCCN)NC(=O)[C@@H](NC(=O)[C@@H](NC(=O)[C@H](C)NC(=O)[C@H](Cc1ccccc1)NC(=O)[C@H](CC(C)C)NC(=O)[C@@H](N)CCCCN)C(C)C)[C@@H](C)CC)C(C)C)C(C)C)C(=O)N[C@@H](CCCN=C(N)N)C(=O)N[C@@H](CCCN=C(N)N)C(=O)N[C@@H](CC(C)C)C(N)=O [KLFAVIKKVAAVIRRL] | –
